Two compounds from ChEMBL document CHEMBL3400127, “Synthesis of 6-[(11)C]methyl-m-tyrosine ([(11)C]6MemTyr) for dopamine synthesis imaging in living brain using PET” (Bioorg Med Chem, 2015) can be followed below.

Common to all, as to details: in vivo
Data set [1] in a line: Drug uptake in cynomolgus monkey cerebellum after 5 mins by PET imaging analysis. The data set is classed as ADME, Macaca fascicularis.
The next data set has as its system Brain. The experiment in a line: Drug uptake in cynomolgus monkey brain assessed as dopamine synthesis after 60 to 90 mins by PET imaging analysis in presence of carbidopa. Format: ADME, tissue-based, Macaca fascicularis.
Data set [2] can be described thus: Drug uptake in cynomolgus monkey cerebellum after 60 to 90 mins by PET imaging analysis. Format: ADME, tissue-based, Macaca fascicularis.
Data set [3] is described as follows: Drug uptake in cynomolgus monkey striatum after 40 to 60 mins by PET imaging analysis. Format: ADME, tissue-based, Macaca fascicularis.
A short description of data set [4]: Drug uptake in cynomolgus monkey cortex after 60 to 90 mins by PET imaging analysis. The data set is classed as ADME, tissue-based, Macaca fascicularis.
Data set [5] can be described thus: Drug uptake in cynomolgus monkey striatum after 60 to 90 mins by PET imaging analysis. Format: ADME, tissue-based, Macaca fascicularis.
Data set [6] can be described thus: Half life in cynomolgus monkey cerebellum by PET imaging analysis. Format: ADME, tissue-based, Macaca fascicularis.
A short description of data set [7]: Drug uptake in cynomolgus monkey cerebellum after 40 to 60 mins by PET imaging analysis. The data set is classed as ADME, tissue-based, Macaca fascicularis.
Data set [8] is described as follows: Drug uptake in cynomolgus monkey striatum after 10 mins by PET imaging analysis. Format: ADME, tissue-based, Macaca fascicularis.

Regarding `[11CH3]c1ccc(O)cc1C[C@H](N)C(=O)O`, the Drug uptake result (in data set [1]; in the data set on Brain; in data set [2]; in data set [3]; in [4]; in data set [5]) was “Active” each time. The Drug uptake entry in data set [7] and in data set [8] was “Active” in each case. The compound further yielded a t1/2 in data set [6] of 30 min.

On to `N[C@@H](Cc1cc(O)c(O)cc1[18F])C(=O)O` [FLUORODOPA F 18], for which the Drug uptake entry (in data set [1]; with Brain; in data set [2]; in data set [3]; in data set [4]; in data set [5]) was “Active” in each case. Besides, the Drug uptake result in data set [7] and in data set [8] was “Active” each time. The compound also registered a t1/2 in data set [6] of 50 min.
